Experimental data as given in patent publication US8673908B2, “Kynurenine production inhibitor” (Kyowa Hakko Kirin Co., Ltd., priority 2008, dated 2014).

Tested on: kynurenine production in IFN-γ-treated KATO-III cells
Test: Inhibitory activity on kynurenine production (Test Example 1)
Assay type: cell-based
Conditions: Homo sapiens, IFN-γ treatment, culture for 96 hours, read-out: IC50 value, inhibition of kynurenine production
Summary of the method: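 Read-out is absorbance at 480 nm of medium treated with trichloroacetic acid, then p-dimethylaminobenzaldehyde, to quantify kynurenine. DMSO-only wells with and without IFN-γ serve as references. Cells were KATO-III, 2,000 per well, 96 h at 37 °C/5% CO2 with compound (DMSO ≤0.1%) and IFN-γ at 31.25 ng/mL in the added suspension.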

SMILES | IC50 [nM]
O=S(=O)(Nc1nc2ccccc2nc1OC(c1ccco1)C(F)(F)F)c1ccccc1Cl (centres unmarked) [Compound 109, 2-chloro-N-{3-[2,2,2-trifluoro-1-(furan-2-yl)ethoxy]-quinoxalin-2-yl}benzenesulfonamide] | < 1000
O=S(=O)(Nc1nc2ccccc2nc1OC(c1cnc(Cl)s1)C(F)(F)F)c1ccccc1Cl (centres unmarked) [Compound 110, 2-chloro-N-{3-[2,2,2-trifluoro-1-(2-chlorothiazol-5-yl)-ethoxy]quinoxalin-2-yl}benzenesulfonamide] | < 1000
O=S(=O)(Nc1nc2ccccc2nc1OC(c1cncn1CC1CC1)C(F)(F)F)c1ccccc1Cl (centres unmarked) [Compound 111, 2-chloro-N-{3-[2,2,2-trifluoro-1-(1-cyclopropylmethyl-1H-imidazol-5-yl)ethoxy]quinoxalin-2-yl}benzenesulfonamide] | < 1000
O=S(=O)(Nc1nc2ccccc2nc1OC(c1cn(CC2CC2)cn1)C(F)(F)F)c1ccccc1Cl (centres unmarked) [Compound 112, 2-chloro-N-{3-[2,2,2-trifluoro-1-(1-cyclopropylmethyl-1H-imidazol-4-yl)ethoxy]quinoxalin-2-yl}benzenesulfonamide] | < 1000
O=S(=O)(Nc1nc2ccccc2nc1OC(c1cncs1)C(F)(F)F)c1ccccc1Cl (centres unmarked) [Compound 113, 2-chloro-N-{3-[2,2,2-trifluoro-1-(thiazol-5-yl)ethoxy]-quinoxalin-2-yl}benzenesulfonamide] | < 1000
Cc1ncc(C(Oc2nc3ccccc3nc2NS(=O)(=O)c2ccccc2Cl)C(F)(F)F)n1C (centres unmarked) [Compound 115, 2-chloro-N-{3-[2,2,2-trifluoro-1-(1,2-dimethyl-1H-imidazol-5-yl)ethoxy]quinoxalin-2-yl}benzenesulfonamide] | < 1000
O=S(=O)(Nc1nc2ccccc2nc1OC(C1CCOCC1)C(F)(F)F)c1ccccc1Cl (centres unmarked) [Compound 116, 2-chloro-N-{3-[2,2,2-trifluoro-1-(tetrahydro-2H-pyran-4-yl)ethoxy]quinoxalin-2-yl}benzenesulfonamide] | < 1000
O=S(=O)(Nc1nc2ccccc2nc1OC(C1CC1)C(F)(F)F)c1ccccc1Cl (centres unmarked) [Compound 117, 2-chloro-N-[3-(1-cyclopropyl-2,2,2-trifluoroethoxy)-quinoxalin-2-yl]benzenesulfonamide] | < 1000
O=S(=O)(Nc1nc2ccccc2nc1OC(C1CCCCC1)C(F)(F)F)c1ccccc1Cl (centres unmarked) [Compound 118, 2-chloro-N-[3-(1-cyclohexyl-2,2,2-trifluoroethoxy)-quinoxalin-2-yl]benzenesulfonamide] | < 1000
Cc1noc(C)c1S(=O)(=O)Nc1nc2ccccc2nc1OC(C1CCOCC1)C(F)(F)F (centres unmarked) [Compound 119, 3,5-dimethyl-N-{3-[2,2,2-trifluoro-1-(tetrahydro-2H-pyran-4-yl)ethoxy]quinoxalin-2-yl}isoxazole-4-sulfonamide] | < 1000
Cc1nn(C)c(Cl)c1S(=O)(=O)Nc1nc2ccccc2nc1OC(C1CCOCC1)C(F)(F)F (centres unmarked) [Compound 120, 5-chloro-1,3-dimethyl-N-{3-[2,2,2-trifluoro-1-(tetrahydro-2H-pyran-4-yl)ethoxy]quinoxalin-2-yl}-1H-pyrazole-4-sulfonamide] | < 1000
CC1(C(Oc2nc3ccccc3nc2NS(=O)(=O)c2ccccc2Cl)C(F)(F)F)CCOCC1 (centres unmarked) [Compound 121, 2-chloro-N-{3-[2,2,2-trifluoro-1-(4-methyltetrahydro-2H-pyran-4-yl]ethoxy}quinoxalin-2-yl)benzenesulfonamide] | < 1000
O=S(=O)(Nc1nc2ccccc2nc1OC(c1cnc(Br)s1)C(F)(F)F)c1ccccc1Cl (centres unmarked) [Compound 126, 2-chloro-N-{3-[2,2,2-trifluoro-1-(2-bromothiazol-5-yl)-ethoxy]quinoxalin-2-yl}benzenesulfonamide] | < 1000
Cn1c(C(Oc2nc3ccccc3nc2NS(=O)(=O)c2ccccc2Cl)C(F)(F)F)cc2ccccc21 (centres unmarked) [Compound 127, 2-chloro-N-{3-[2,2,2-trifluoro-1-(1-methyl-1H-indol-2-yl)-ethoxy]quinoxalin-2-yl}benzenesulfonamide] | < 1000
Cc1noc(C)c1S(=O)(=O)Nc1nc2ccccc2nc1OC(c1cc2ccccc2n1C)C(F)(F)F (centres unmarked) [Compound 128, 3,5-dimethyl-N-{3-[2,2,2-trifluoro-1-(1-methyl-1H-indol-2-yl)ethoxy]quinoxalin-2-yl}isoxazole-4-sulfonamide] | < 1000
Cc1nn(C)c(Cl)c1S(=O)(=O)Nc1nc2ccccc2nc1OC(c1cc2ccccc2n1C)C(F)(F)F (centres unmarked) [Compound 129, 5-chloro-1,3-dimethyl-N-{3-[2,2,2-trifluoro-1-(1-methyl-1H-indol-2-yl)ethoxy]quinoxalin-2-yl}-1H-pyrazole-4-sulfonamide] | < 1000
Cc1nn(C)c(Cl)c1S(=O)(=O)Nc1nc2ccccc2nc1OC(C1CCSCC1)C(F)(F)F (centres unmarked) [Compound 130, 5-chloro-1,3-dimethyl-N-{3-[2,2,2-trifluoro-1-(tetrahydro-2H-thiopyran-4-yl)ethoxy]quinoxalin-2-yl}-1H-pyrazole-4-sulfonamide] | < 1000
Cc1noc(C)c1S(=O)(=O)Nc1nc2ccccc2nc1OC(C1CCSCC1)C(F)(F)F (centres unmarked) [Compound 131, 3,5-dimethyl-N-{3-[2,2,2-trifluoro-1-(tetrahydro-2H-thiopyran-4-yl)ethoxy]quinoxalin-2-yl}isoxazole-4-sulfonamide] | < 1000

SMILES | IC50 [nM]
O=S(=O)(Nc1nc2ccccc2nc1OC(c1cnc(-c2ccccc2)s1)C(F)(F)F)c1ccccc1Cl (centres unmarked) [Compound 134, 2-chloro-N-{3-[2,2,2-trifluoro-1-(2-phenylthiazol-5-yl)-ethoxy]quinoxalin-2-yl}benzenesulfonamide] | < 1000
CCCS(=O)(=O)Nc1nc2ccccc2nc1OC(c1cc2ccccc2n1C)C(F)(F)F (centres unmarked) [Compound 135, N-{3-[2,2,2-trifluoro-1-(1-methyl-1H-indol-2-yl)ethoxy]-quinoxalin-2-yl}propane-1-sulfonamide] | < 1000
O=S(=O)(Nc1nc2ccccc2nc1OC(C1CCOC1)C(F)(F)F)c1ccccc1Cl (centres unmarked) [Compound 136, 2-chloro-N-{3-[2,2,2-trifluoro-1-(tetrahydrofuran-3-yl)-ethoxy]quinoxalin-2-yl}benzenesulfonamide] | < 1000
O=S(=O)(Nc1nc2ccccc2nc1OC(c1cccnc1)C(F)(F)F)c1ccccc1 (centres unmarked) [Compound 137, N-{3-[2,2,2-trifluoro-1-(pyridin-3-yl)ethoxy]quinoxalin-2-yl}benzenesulfonamide] | < 1000
O=S(=O)(Nc1nc2ccccc2nc1OC(c1cccnc1)C(F)(F)F)c1ccccc1Cl (centres unmarked) [Compound 138, 2-Chloro-N-{3-[2,2,2-trifluoro-1-(pyridin-3-yl)ethoxy]-quinoxalin-2-yl}benzenesulfonamide] | < 1000
O=S(=O)(Nc1nc2ccccc2nc1OC(c1cccnc1)C(F)(F)F)c1cccnc1 (centres unmarked) [Compound 139, N-{3-[2,2,2-trifluoro-1-(pyridin-3-yl)ethoxy]quinoxalin-2-yl}pyridine-3-sulfonamide] | < 1000
O=S(=O)(Nc1nc2ccccc2nc1OC(c1cccnc1)C(F)(F)F)c1cccs1 (centres unmarked) [Compound 140, N-{3-[2,2,2-trifluoro-1-(pyridin-3-yl)ethoxy]quinoxalin-2-yl}thiophene-2-sulfonamide] | < 1000
Cc1nn(C)c(Cl)c1S(=O)(=O)Nc1nc2ccccc2nc1OC(c1cccnc1)C(F)(F)F (centres unmarked) [Compound 141, 5-chloro-1,3-dimethyl-N-{3-[2,2,2-trifluoro-1-(pyridin-3-yl)ethoxy]quinoxalin-2-yl}-1H-pyrazole-4-sulfonamide] | < 1000
Cc1cc(S(=O)(=O)Nc2nc3ccccc3nc2OC(c2cccnc2)C(F)(F)F)c(C(F)(F)F)o1 (centres unmarked) [Compound 143, 5-methyl-N-{3-[2,2,2-trifluoro-1-(pyridin-3-yl)ethoxy]-quinoxalin-2-yl}-2-(trifluoromethyl)furan-3-sulfonamide] | < 1000
O=S(=O)(Nc1nc2ccccc2nc1OC(c1cccnc1)C(F)(F)F)c1ccccc1F (centres unmarked) [Compound 144, 2-fluoro-N-{3-[2,2,2-trifluoro-1-(pyridin-3-yl)ethoxy]-quinoxalin-2-yl}benzenesulfonamide] | < 1000
O=S(=O)(Nc1nc2ccccc2nc1OC(c1cccnc1)C(F)(F)F)c1ccc(Cl)s1 (centres unmarked) [Compound 146, 5-chloro-N-{3-[2,2,2-trifluoro-1-(pyridin-3-yl)ethoxy]-quinoxalin-2-yl}thiophene-2-sulfonamide] | < 1000
O=S(=O)(Cc1ccccc1)Nc1nc2ccccc2nc1OC(c1cccnc1)C(F)(F)F (centres unmarked) [Compound 147, 1-phenyl-N-{3-[2,2,2-trifluoro-1-(pyridin-3-yl)ethoxy]-quinoxalin-2-yl}methanesulfonamide] | < 1000
CS(=O)(=O)Nc1nc2ccccc2nc1OC(c1cccnc1)C(F)(F)F (centres unmarked) [Compound 148, N-{3-[2,2,2-trifluoro-1-(pyridin-3-yl)ethoxy]quinoxalin-2-yl}methanesulfonamide] | 1000 to 10000
O=S(=O)(Nc1nc2ccccc2nc1OC(c1cccnc1)C(F)(F)F)C1CC1 (centres unmarked) [Compound 150, N-{3-[2,2,2-trifluoro-1-(pyridin-3-yl)ethoxy]quinoxalin-2-yl}cyclopropanesulfonamide] | < 1000
O=S(=O)(Nc1nc2ccccc2nc1OC(c1cccnc1)C(F)(F)F)c1ccccc1OC(F)(F)F (centres unmarked) [Compound 151, N-{3-[2,2,2-trifluoro-1-(pyridin-3-yl)ethoxy]quinoxalin-2-yl}-2-(trifluoromethoxy)benzenesulfonamide] | < 1000
O=S(=O)(Nc1nc2ccccc2nc1OC(c1cccnc1)C(F)(F)F)c1cc(Cl)cc(Cl)c1 (centres unmarked) [Compound 152, 3,5-dichloro-N-{3-[2,2,2-trifluoro-1-(pyridin-3-yl)ethoxy]-quinoxalin-2-yl}benzenesulfonamide] | < 1000
O=S(=O)(Nc1nc2ccccc2nc1OC(c1cccnc1)C(F)(F)F)c1cc(F)cc(F)c1 (centres unmarked) [Compound 153, 3,5-difluoro-N-{3-[2,2,2-trifluoro-1-(pyridin-3-yl)ethoxy]-quinoxalin-2-yl}benzenesulfonamide] | < 1000
